The values below come from patent US12281122B1, “PI3K inhibitors” (Cogent Biosciences, Inc., priority 2023, dated 2025).

Each structure is given as a SMILES string.

Assay [1] relates to T47D (PI3Kα-H1047R) cell line. Description: HTRF phospho-AKT(S473) cell assay in T47D cells. The assay is classed as cell-based, human. Particulars: Homo sapiens; T47D (PI3Kα-H1047R) cells, HTRF phospho-AKT(S473), 2 hours compound incubation. In a few lines: (§1)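 Cells plated overnight (T47D in RPMI/10% FBS/0.2 units/mL insulin; SKBR3 in McCoy's 5A/10% FBS), then given 12-point 1:3 compound series (top 5 μM T47D, 10 μM SKBR3; ≤0.5% DMSO) for 2 h at 37° C. SKBR3 stimulated with 70 ng/ml PDGF-BB for final 15 min. Lysate pAKT(S473) by HTRF; IC50 calculated.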

Assay [2] has as its system SKBR3 (PI3Kα-Wild Type) cell line. The assay is described as follows: HTRF phospho-AKT(S473) cell assay in SKBR3 cells. Particulars: Homo sapiens, SK-BR-3; SKBR3 (PI3Kα-Wild Type) cells, HTRF phospho-AKT(S473), 2 hours compound incubation, PDGF-BB stimulated. The assay is classed as cell-based, human. In a few lines: as §1

For the compound `Cc1cc([C@@H](C)Nc2ccc(Cl)nc2C(=O)NS(C)(=O)=O)c2nc(N3CCC(c4cnc(C)cn4)CC3)n(C)c(=O)c2c1` [Compound 272, (R)-6-chloro-3-((1-(3,6-dimethyl-2-(4-(5-methylpyrazin-2-yl)piperidin-1-yl)-4-oxo-3,4-dihydroquinazolin-8-yl)ethyl)amino)-N-(methylsulfonyl) picolinamide], the IC50 in assay [1] is less than 250 nM; in assay [2] it was 1 to 5 µM.
The like results for `Cc1cc([C@@H](C)Nc2ccc(Cl)nc2C(=O)NS(C)(=O)=O)c2nc(N3Cc4cccc(-c5cnn(C)c5)c4C3)n(C)c(=O)c2c1` [Compound 273, (R)-6-chloro-3-((1-(3,6-dimethyl-2-(4-(1-methyl-1H-pyrazol-4-yl)isoindolin-2-yl)-4-oxo-3,4-dihydroquinazolin-8-yl)ethyl)amino)-N-(methylsulfonyl) picolinamide] were, in that order, less than 250 nM and not below 5 µM.
Taken in the same sequence, the figures for `Cc1cc([C@@H](C)Nc2ccc(Cl)nc2C(=O)NS(C)(=O)=O)c2nc(N3Cc4cccc(-c5ccnn5C)c4C3)n(C)c(=O)c2c1` [Compound 274, (R)-6-chloro-3-((1-(3,6-dimethyl-2-(4-(1-methyl-1H-pyrazol-5-yl)isoindolin-2-yl)-4-oxo-3,4-dihydroquinazolin-8-yl)ethyl)amino)-N-(methylsulfonyl) picolinamide] were less than 250 nM and 1 to 5 µM.
The like results for `Cc1cc([C@@H](C)Nc2ccc(Cl)nc2C(=O)NS(C)(=O)=O)c2nc(N3CCC4(CCC(O)CC4)CC3)n(C)c(=O)c2c1` [Compound 275, (R)-6-chloro-3-((1-(2-(9-hydroxy-3-azaspiro[5.5]undecan-3-yl)-3,6-dimethyl-4-oxo-3,4-dihydroquinazolin-8-yl)ethyl)amino)-N-(methylsulfonyl) picolinamide] were, in that order, less than 250 nM and not below 5 µM.
Regarding `Cc1cc([C@@H](C)Nc2ccc(Cl)nc2C(=O)NS(C)(=O)=O)c2nc(N3CCc4oncc4C3)n(C)c(=O)c2c1` [Compound 276, (R)-6-chloro-3-((1-(2-(6,7-dihydroisoxazolo[4,5-c]pyridin-5(4H)-yl)-3,6-dimethyl-4-oxo-3,4-dihydroquinazolin-8-yl)ethyl)amino)-N-(methylsulfonyl) picolinamide], the figures for the IC50 in assay [1] and in assay [2] were less than 250 nM and 1 to 5 µM, respectively.
The like results for `Cc1cc([C@@H](C)Nc2ccc(Cl)nc2C(=O)NS(C)(=O)=O)c2nc(N3Cc4cn(-c5ccnn5C)nc4C3)n(C)c(=O)c2c1` [Compound 277, (R)-6-chloro-3-((1-(3,6-dimethyl-2-(2-(1-methyl-1H-pyrazol-5-yl)-2,6-dihydropyrrolo[3,4-c]pyrazol-5(4H)-yl)-4-oxo-3,4-dihydroquinazolin-8-yl)ethyl)amino)-N-(methylsulfonyl) picolinamide] were, in that order, less than 250 nM and 1 to 5 µM.
As to `Cc1cc([C@@H](C)Nc2ccc(Cl)nc2C(=O)NS(C)(=O)=O)c2nc(N3CCC(n4ncc5cc(N)ccc54)CC3)n(C)c(=O)c2c1` [Compound 278, (R)-3-((1-(2-(4-(5-amino-1H-indazol-1-yl)piperidin-1-yl)-3,6-dimethyl-4-oxo-3,4-dihydroquinazolin-8-yl)ethyl)amino)-6-chloro-N-(methylsulfonyl) picolinamide], the IC50 in assay [1] is less than 250 nM; in assay [2], 1 to 5 µM.
Taken in the same sequence, the figures for `Cc1cc([C@@H](C)Nc2ccc(Cl)nc2C(=O)NS(C)(=O)=O)c2nc(N3CCc4nn(CC5CC5)cc4C3)n(C)c(=O)c2c1` [Compound 279, (R)-6-chloro-3-((1-(2-(2-(cyclopropylmethyl)-2,4,6,7-tetrahydro-5H-pyrazolo[4,3-c]pyridin-5-yl)-3,6-dimethyl-4-oxo-3,4-dihydroquinazolin-8-yl)ethyl)amino)-N-(methylsulfonyl) picolinamide] were less than 250 nM and 1 to 5 µM.
Regarding `CC(=O)N1CCC2(CC1)CCN(c1nc3c([C@@H](C)Nc4ccc(Cl)nc4C(=O)NS(C)(=O)=O)cc(C)cc3c(=O)n1C)CC2` [Compound 280, (R)-3-((1-(2-(9-acetyl-3,9-diazaspiro[5.5]undecan-3-yl)-3,6-dimethyl-4-oxo-3,4-dihydroquinazolin-8-yl)ethyl)amino)-6-chloro-N-(methylsulfonyl) picolinamide], the figures for the IC50 in assay [1] and in assay [2] were less than 250 nM and 1 to 5 µM, respectively.
As to `Cc1cc([C@@H](C)Nc2ccc(Cl)nc2C(=O)NS(C)(=O)=O)c2nc(-c3ccc(O[C@H]4CCN(C)CC4(F)F)nc3)n(C)c(=O)c2c1` [Compound 281, 6-chloro-3-(((R)-1-(2-(6-(((S)-3,3-difluoro-1-methylpiperidin-4-yl)oxy)pyridin-3-yl)-3,6-dimethyl-4-oxo-3,4-dihydroquinazolin-8-yl)ethyl)amino)-N-(methylsulfonyl) picolinamide], the IC50 in assay [1] is less than 250 nM; in assay [2], 1 to 5 µM.
Consider `COC1CCC2(CC1)CCN(c1nc3c([C@@H](C)Nc4ccc(Cl)nc4C(=O)NS(C)(=O)=O)cc(C)cc3c(=O)n1C)CC2` [Compound 282, (R)-6-chloro-3-((1-(2-(9-methoxy-3-azaspiro[5.5]undecan-3-yl)-3,6-dimethyl-4-oxo-3,4-dihydroquinazolin-8-yl)ethyl)amino)-N-(methylsulfonyl) picolinamide], for which the IC50 in assay [1] was less than 250 nM; in assay [2], not below 5 µM.
On to `Cc1cc([C@@H](C)Nc2ccc(Cl)nc2C(=O)NS(C)(=O)=O)c2nc(-c3ccc(Nc4ccccc4C)nc3)n(C)c(=O)c2c1` [Compound 283, (R)-6-chloro-3-((1-(3,6-dimethyl-4-oxo-2-(6-(o-tolylamino)pyridin-3-yl)-3,4-dihydroquinazolin-8-yl)ethyl)amino)-N-(methylsulfonyl) picolinamide], for which the IC50 in assay [1] is less than 250 nM; in assay [2] it was not below 5 µM.
Taken in the same sequence, the figures for `Cc1cc([C@@H](C)Nc2ccc(Cl)nc2C(=O)NS(C)(=O)=O)c2nc(-c3ccc(-c4cnn(C)c4)cn3)n(C)c(=O)c2c1` [Compound 285, (R)-6-chloro-3-((1-(3,6-dimethyl-2-(5-(1-methyl-1H-pyrazol-4-yl)pyridin-2-yl)-4-oxo-3,4-dihydroquinazolin-8-yl)ethyl)amino)-N-(methylsulfonyl) picolinamide] were less than 250 nM and 1 to 5 µM.
Taken in the same sequence, the figures for `Cc1cc([C@@H](C)Nc2ccc(Cl)nc2C(=O)NS(C)(=O)=O)c2nc(N3CCc4nn(C)cc4C3)n(C)c(=O)c2c1` [Compound 286, (R)-6-chloro-3-((1-(3,6-dimethyl-2-(2-methyl-2,4,6,7-tetrahydro-5H-pyrazolo[4,3-c]pyridin-5-yl)-4-oxo-3,4-dihydroquinazolin-8-yl)ethyl)amino)-N-(methylsulfonyl) picolinamide] were less than 250 nM and 1 to 5 µM.
The like results for `Cc1cc([C@@H](C)Nc2ccc(Cl)nc2C(=O)NS(C)(=O)=O)c2nc(N3CCC(c4cc(C)n(C)n4)CC3)n(C)c(=O)c2c1` [Compound 287, (R)-6-chloro-3-((1-(2-(4-(1,5-dimethyl-1H-pyrazol-3-yl)piperidin-1-yl)-3,6-dimethyl-4-oxo-3,4-dihydroquinazolin-8-yl)ethyl)amino)-N-(methylsulfonyl) picolinamide] were, in that order, less than 250 nM and 1 to 5 µM.
In the case of `Cc1cc([C@@H](C)Nc2ccc(Cl)nc2C(=O)NS(C)(=O)=O)c2nc(-c3cnn(C)c3)n(C)c(=O)c2c1` [Compound 288, (R)-6-chloro-3-((1-(3,6-dimethyl-2-(1-methyl-1H-pyrazol-4-yl)-4-oxo-3,4-dihydroquinazolin-8-yl)ethyl)amino)-N-(methylsulfonyl) picolinamide], the IC50 was less than 250 nM in assay [1] and 1 to 5 µM in assay [2].
As to `Cc1cc([C@@H](C)Nc2ccc(Cl)nc2C(=O)NS(C)(=O)=O)c2nc(N3CCc4nn(CC5COC5)cc4C3)n(C)c(=O)c2c1` [Compound 289, (R)-6-chloro-3-((1-(3,6-dimethyl-2-(2-(oxetan-3-ylmethyl)-2,4,6,7-tetrahydro-5H-pyrazolo[4,3-c]pyridin-5-yl)-4-oxo-3,4-dihydroquinazolin-8-yl)ethyl)amino)-N-(methylsulfonyl) picolinamide], the IC50 in assay [1] was less than 250 nM; in assay [2] it was not below 5 µM.
The like results for `Cc1cc([C@@H](C)Nc2ccc(Cl)nc2C(=O)NS(C)(=O)=O)c2nc(N3Cc4cn(C5COC5)nc4C3)n(C)c(=O)c2c1` [Compound 290, (R)-6-chloro-3-((1-(3,6-dimethyl-2-(2-(oxetan-3-yl)-2,6-dihydropyrrolo[3,4-c]pyrazol-5(4H)-yl)-4-oxo-3,4-dihydroquinazolin-8-yl)ethyl)amino)-N-(methylsulfonyl) picolinamide] were, in that order, less than 250 nM and 1 to 5 µM.
Taken in the same sequence, the figures for `Cc1cc([C@@H](C)Nc2ccc(Cl)nc2C(=O)NS(C)(=O)=O)c2nc(N3CCC(Nc4cnn(C)c4)CC3)n(C)c(=O)c2c1` [Compound 291, (R)-6-chloro-3-((1-(3,6-dimethyl-2-(4-((1-methyl-1H-pyrazol-4-yl)amino)piperidin-1-yl)-4-oxo-3,4-dihydroquinazolin-8-yl)ethyl)amino)-N-(methylsulfonyl) picolinamide] were less than 250 nM and 1 to 5 µM.
Taken in the same sequence, the figures for `Cc1cc([C@@H](C)Nc2ccc(Cl)nc2C(=O)NS(C)(=O)=O)c2nc(-c3cnc(-c4cnn(C)c4)c(Cl)c3)n(C)c(=O)c2c1` [Compound 292, (R)-6-chloro-3-((1-(2-(5-chloro-6-(1-methyl-1H-pyrazol-4-yl)pyridin-3-yl)-3,6-dimethyl-4-oxo-3,4-dihydroquinazolin-8-yl)ethyl)amino)-N-(methylsulfonyl) picolinamide] were less than 250 nM and 1 to 5 µM.
